# Several values for one entry are separate records, joined by “and”; a condition that tells them apart may be missing. Equal entries are not always repeated. Entries after “also recorded” stand apart in the source; their conditions may differ.
# What was measured:
# [1] = Pharmacokinetics of CDU in plasma after intravenous administration of 25 mg/kg to rats; format: in vivo, Sprague-Dawley rats
# Experimental: 5-Carboranyl-2'-deoxyuridine (CDU) was synthesized by the method of Yamamoto, et al. The chemical purity, confirmed by ^1 H NMR spectral and high-pressure liquid chromatography (HPLC) analysis, was greater than 98%. For intravenous administration, CDU was dissolved in dimethylsulfoxide (DMSO). Internal standard, progesterone, and β-glucuronidase were purchased from Sigma Chemical Company (St. Louis, Mo.). Methanol, HPLC grade, and all other chemicals, analytical grade, were obtained from J. T. Baker (Phillipsburg, N.J.). Partition coefficients were determined one hour after administration.
# Five adult male Sprague-Dawley (Harlan Laboratories, Indianapolis, Ind.) rats weighing 303±8 g (mean±SD) were used for the pharmacokinetic study. Rats were housed in a 12 hour light/12 hour dark, constant temperature (22° C.) environment with free access to standard laboratory chow and water. Animals were acclimatized to this environment for one week before the experiment. External jugular vein cannulas were implanted under ketamine:acepromazine:xylazine (50:3.3:3.3 mg/kg) anesthesia the day before the experiment. Rats were fasted overnight, however, water was available ad libitum.
# (§1) On the morning of the experiment, rats were placed in individual metabolism cages. CDU […]) was administered intravenously in 0.1 ml of DMSO to the rats over a one minute period. Blood samples (0.35 ml) were collected prior to and at […], 2, 3, 4, 5, 6, 7 and 8 hour after CDU administration from the cannula into heparinized polypropylene microcentrifuge tubes. Blood volume was replaced with an equal volume of normal saline. Blood samples were immediately centrifuged at 2000 g for 5 minutes and plasma was separated and frozen at -20° C. until analysis. Urine was collected for 24 hour following CDU administration. Urine volume was measured and samples were frozen at -20° C. until analysis.
# (§2) Concentrations of CDU in plasma, brain, and urine were determined by HPLC. For the determination of CDU in brain, the brain tissue was homogenized in a 1:2 (g:ml) ratio with isotonic sodium phosphate buffer, pH 7.4. To 200 μl of plasma or brain homogenate in a glass test tube, 50 μl of internal standard (20 μg/ml progesterone) and 5 ml of methylene chloride was added. Tubes were shaken for 15 minutes at low speed on a shaker, centrifuged for 5 minutes at 2000 rpm, and the plasma layer was aspirated off using a vacuum system. The remaining methylene chloride was transferred to a glass culture tube and evaporated to dryness under a stream of nitrogen gas at ambient temperature. The residue was reconstituted with 250 μl of methanol and injected onto HPLC system.
# Chromatography was performed on a Hypersil ODC column (5 μm particle size, 4.6×150 mm; Alltech Associates Inc., Deerfield, Ill.) with an online guard column and an isocratic mobile phase of 65% methanol in 10 mM monobasic potassium phosphate, pH 6.3 at a flow rate of 1.5 ml/min. Compounds were detected at a UV wavelength of 274 nm with a detector range setting of 0.005 absorbance units, full scale.
# The retention times of CDU and internal standard were 4.7 and 8.6 min, respectively. Sample CDU concentrations were calculated from the slope of calibration plots of the peak area ratio of CDU:internal standard versus standard CDU concentrations. The slopes and intercepts were generated using weighted (1/x^2) least-squares regression analysis. Standard curves were linear in the range of 0.1 μg/ml to 50 μg/ml. The intra- and inter-day relative standard deviations over the range of standard concentrations in all biological media were less than 10%. The extraction recoveries of CDU and progesterone were 99% and 95%, respectively.
# Area/moment analysis was used to calculate pharmacokinetic parameters of CDU. […]
# [2] = tested on: primary human peripheral blood mononuclear (PBM) cells; assay: Cellular uptake and intracellular phosphorylation, PBM cells; format: cell-based
# Excerpt: Carboranyl-containing nucleosides and oligonucleotides, which are lipophilic and have a high content of boron atoms, are particularly suited for use in BNCT of urogenital tumors. Preferred compounds include 5-carboranyl-2'-deoxyuridine (CDU) and 5-o-carboranyl-1-(2-deoxy-2-fluoro-β-D-arabinofuranosyl)uracil (CFAU). […] The entrapment of this molecule in cells allows for the enhancement of the tumor-to-blood ratio for BNCT. CFAU has increased glycosidic bond stability conferred by the β-fluorine group positioned on the 2'-carbon of the nucleoside.
# It has been discovered that boron neutron capture therapy, optionally combined with antisense oligonucleotide therapy, can be used in the treatment of urogenital cancer, and in particular, that of the prostate, bladder, and kidney. Any boron-containing compound that is sufficiently lipophilic to pass through the appropriate urogenital membranes in a quantity high enough to achieve therapy on irradiation with low-energy neutrons can be used. Carboranyl-containing nucleosides and oligonucleotides, which are lipophilic and have a high content of boron atoms, are particularly suited for use in BNCT of urogenital cancer. Preferred compounds include 5-carboranyl-2'-deoxyuridine (CDU) and 5-o-carboranyl-1-(2-deoxy-2-fluoro-β-D-arabinofuranosyl)uracil (CFAU). […]
# [3] = Brain uptake of CDU after loading dose and three hour intravenous infusion; format: in vivo, Sprague-Dawley rats
# Experimental: Two adult male sprague-dawley rats weighing 305 and 312 g were used to examine the brain uptake of CDU. A loading dose of 5 mg/kg CDU in […] of DMSO was administered intravenously over a one minute period followed by three hour infusion of CDU at the rate of 5 mg/h/kg (50 μl/h) using an infusion […]. At the end of infusion blood samples were collected and rats were sacrificed. The brains were dissected and frozen at -20° C. until analysis.
# as §2
# [4] = Urinary excretion of unchanged CDU and CDU glucuronide; format: in vivo, Sprague-Dawley rats
# Experimental: as §1
# For the determination of unchanged CDU in urine, urine samples were diluted 1:50 with distilled deionized water and 100 μl of internal standard (50 μg/ml progesterone) was added and injected onto the HPLC. Concentrations of CDU glucuronide in urine were determined after hydrolyzing the glucuronate with β-glucuronidase as previously described. Glucuronide concentrations were calculated as the difference between CDU concentrations measured after hydrolysis and before hydrolysis with β-glucuronidase.
# [5] = 25 mg/kg i.v., rats, total plasma concentrations, 25 mg/kg
# [6] = 25 mg/kg i.v., individual rat, 25 mg/kg
# [7] = 25 mg/kg i.v., individual rat, unbound
# [8] = 25 mg/kg i.v., mean of five rats
# [9] = 25 mg/kg i.v., mean of five rats, unbound
# [10] = i.v. infusion to steady state, each of two rats, 5 mg/kg, 180 min
substance,measurement,setting,value
5-carboranyl-2'-deoxyuridine [CDU],decline of plasma concentrations (in words),"[1]; 25 mg/kg i.v., rats",declined in a biexponential fashion
same,volume of distribution based on unbound CDU concentrations,"[1]; 25 mg/kg i.v., rats",15.5 kg⁻¹
same,clearance based on unbound plasma CDU concentrations (CLf),"[1]; 25 mg/kg i.v., rats, average",255.5 ± 74 mL/min/kg and 255 mL/min/kg
same,terminal half-life,"[1]; 25 mg/kg i.v., rats, mean±SD",1.26 ± 0.28 h
same,steady-state volume of distribution,[1]; [5],0.70 ± 0.23 kg⁻¹ and 0.7 kg⁻¹
same,total clearance,[1]; [5],11.5 ± 3.3 mL/min/kg and 11.5 mL/min/kg
same,"AUC, individual rats",[1]; [6],32.39 mg h 1^-1 and 25.14 mg h 1^-1 and 44.68 mg h 1^-1 and 42.49 mg h 1^-1 and 47.28 mg h 1^-1
same,"CLT, individual rats",[1]; [6],0.77 1 h^-1 kg^-1 and 0.99 1 h^-1 kg^-1 and 0.56 1 h^-1 kg^-1 and 0.59 1 h^-1 kg^-1 and 0.53 1 h^-1 kg^-1
same,"MRT, individual rats",[1]; [6],1.17 h and 0.51 h and 0.81 h and 1.64 h and 1.24 h
same,"V33 (steady-state volume of distribution), individual rats",[1]; [6],0.90 1 kg^-1 and 0.51 1 kg^-1 and 0.45 1 kg^-1 and 0.97 1 kg^-1 and 0.65 1 kg^-1
same,"t1/2, individual rats",[1]; [6],1.46 h and 1.20 h and 0.81 h and 1.54 h and 1.28 h
same,"CLf, individual rats",[1]; [7],17.15 1 h^-1 kg^-1 and 22.33 1 h^-1 kg^-1 and 12.36 1 h^-1 kg^-1 and 13.07 1 h^-1 kg^-1 and 11.76 1 h^-1 kg^-1
same,"Vss,f, individual rats",[1]; [7],20.02 1 kg^-1 and 11.29 1 kg^-1 and 10.09 1 kg^-1 and 21.56 1 kg^-1 and 14.53 1 kg^-1
same,"AUC, mean",[1]; [8],38.39 mg h 1^-1
same,"MRT, mean",[1]; [8],1.07 h
same,"V33 (steady-state volume of distribution), mean",[1]; [8],0.70 1 kg^-1
same,"t1/2, mean",[1]; [8],1.26 h
same,"CLf, mean",[1]; [9],15.33 1 h^-1 kg^-1
same,"Vss,f, mean",[1]; [9],15.50 1 kg^-1
same,metabolic intrinsic clearance of free drug,"[1]; estimated, unbound drug",333 mL/min/kg
same,intracellular phosphorylation in PBM cells (in words),[2],intracellularly phosphorylated
same,uptake by PBM cells (in words),[2],taken up
same,brain:unbound plasma CDU ratio,"[3]; i.v. infusion to steady state, each of two rats",10.26 and 7.87
same,brain CDU concentration,[3]; [10],2.77 µg/mL and 1.81 µg/mL
same,brain:total plasma CDU concentration ratio,[3]; [10],0.47 and 0.36
same,total plasma CDU concentration,[3]; [10],5.92 µg/mL and 5.01 µg/mL
same,brain concentrations as % of total plasma CDU concentrations,"[3]; i.v. infusion to steady state, two rats, 5 mg/kg, 180 min",36 to 47%
same,brain:plasma ratio based on unbound vs total plasma concentrations,[3]; unbound compared to total,20 fold
same,unchanged CDU in urine (in words),[4]; 24 hours following 25 mg/kg i.v.,No unchanged CDU was detected in urine; also recorded: No unchanged CDU was recovered in urine
same,renal excretion (in words),[4]; rat,not renally excreted to any significant extent
same,renal tubular reabsorption (in words),"[4]; rat, inferred from absence of unchanged CDU in urine",virtually complete renal tubular reabsorption
same,CDU glucuronide in urine (in words),"[4]; urine treated with β-glucuronidase, 25 mg/kg i.v., 25 mg/kg",no trace of CDU glucuronide in urine; also recorded: no glucuronide metabolites were detected in urine samples
